Results reported in paper PMC8537048, “Characterization of Fungal FAD-Dependent AA3_2 Glucose Oxidoreductases from Hitherto Unexplored Phylogenetic Clades” (Journal of Fungi, 2021).

Columns and labels:
[1] = target: Aureobasidium subglaciale glucose oxidase (AsGOxII) (Aureobasidium subglaciale); test: SEC-MALS; HPLC-SEC-MALS of the purified, native glycosylated enzyme; Superdex 200 10/300 GL, PBS pH 7.4 with 200 mM NaCl, 0.75 mL/min, 25 °C; 80 μg of protein loaded per run; oligomeric state judged against the mass of the deglycosylated subunit by SDS-PAGE
RsGDHIII = target: T1, RsGDHIII (Rhizoctonia solani, UniProt A0A0B7G104); test: spectrophotometric steady-state kinetics, reduction of […],4-benzoquinone ([…] nm); assay type: biochemical; details: 0.5 mM 1,4-benzoquinone fixed, pH 6.5, 30 °C
T1 construct: gene RSOLAG1IB_10481; monomer; non-covalent FAD
T1 sequence (A0A0B7G104 20-601): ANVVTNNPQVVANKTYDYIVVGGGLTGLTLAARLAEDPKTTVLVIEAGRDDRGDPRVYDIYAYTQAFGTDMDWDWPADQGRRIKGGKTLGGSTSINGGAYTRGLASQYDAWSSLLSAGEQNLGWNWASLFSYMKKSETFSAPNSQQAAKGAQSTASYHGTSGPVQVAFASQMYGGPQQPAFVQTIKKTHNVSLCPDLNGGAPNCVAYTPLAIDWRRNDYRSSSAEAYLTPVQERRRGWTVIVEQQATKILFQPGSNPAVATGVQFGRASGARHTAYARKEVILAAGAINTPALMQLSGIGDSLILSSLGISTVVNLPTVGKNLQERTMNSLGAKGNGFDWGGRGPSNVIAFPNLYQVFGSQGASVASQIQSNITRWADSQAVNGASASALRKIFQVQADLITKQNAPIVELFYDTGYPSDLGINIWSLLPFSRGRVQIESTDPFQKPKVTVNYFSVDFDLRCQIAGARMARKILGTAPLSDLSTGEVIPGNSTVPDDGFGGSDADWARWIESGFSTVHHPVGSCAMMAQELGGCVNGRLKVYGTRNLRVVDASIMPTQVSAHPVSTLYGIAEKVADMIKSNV

TvGDHII = target: T2, TvGDHII (Trichoderma virens, UniProt G9N1C2); test: as above; assay type: biochemical; details: 0.5 mM 1,4-benzoquinone fixed, pH 6.5, 30 °C
T2 construct: gene TRIVIDRAFT_46709; monomer; ~65 kDa deglycosylated; non-covalent FAD
T2 sequence (G9N1C2 entry or part of it): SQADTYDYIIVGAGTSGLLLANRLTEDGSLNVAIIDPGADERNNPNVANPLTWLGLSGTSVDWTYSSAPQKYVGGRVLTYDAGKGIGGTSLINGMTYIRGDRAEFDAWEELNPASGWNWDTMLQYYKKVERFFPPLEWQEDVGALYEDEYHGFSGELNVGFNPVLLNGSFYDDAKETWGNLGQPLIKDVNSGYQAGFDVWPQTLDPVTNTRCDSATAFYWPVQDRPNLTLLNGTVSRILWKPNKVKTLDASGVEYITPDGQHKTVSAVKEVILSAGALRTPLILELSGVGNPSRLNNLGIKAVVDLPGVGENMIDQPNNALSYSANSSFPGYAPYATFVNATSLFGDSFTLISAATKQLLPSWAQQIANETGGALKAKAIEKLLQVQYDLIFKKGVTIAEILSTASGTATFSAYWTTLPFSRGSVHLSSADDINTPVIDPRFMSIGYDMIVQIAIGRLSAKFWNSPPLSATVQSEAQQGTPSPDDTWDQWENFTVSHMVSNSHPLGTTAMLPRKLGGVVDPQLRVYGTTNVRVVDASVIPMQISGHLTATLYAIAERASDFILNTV

Molecule: Aureobasidium subglaciale glucose oxidase (AsGOxII) (enzyme)
- stoichiometry N [1]: 2

Molecule: OC[C@H]1O[C@H](O[C@H]2[C@H](O)[C@@H](O)C(O)O[C@@H]2CO)[C@H](O)[C@@H](O)[C@@H]1O (stereo partly drawn) [maltose]
- apparent Km (RsGDHIII): 159.6 ± 9.4 mM

Molecule: OC[C@H]1OC(O)[C@H](O)[C@@H](O)[C@H]1O (stereo partly drawn) [D-galactose]
- apparent Km (TvGDHII): 42.6 ± 2.4 mM
